Results taken from US6133292A, “Diaryl-5-alkyl-5-methyl-2-(5H)-furanones as selective cyclooxygenase-2-inhibitors” (Merck Frosst Canada & Co., priority 1998, dated 2000).
pIC50: −log10 of the molar value.

Tests used:
COX-2 = target: T1, COX-2 (Homo sapiens, UniProt P35354); assay: Human whole blood assay, COX-2 (LPS-induced PGE2 production); type: cell-based; parameters: incubation of human whole blood with LPS, which induces COX-2; from tissue; host or cells: fresh heparinized human whole blood from male and female volunteers, LPS-stimulated; conditions: 24 hours at 37° C, read-out: HWB Cox-2 (IC50, inhibition of PGE2 production)
T1 sequence (P35354 18-604): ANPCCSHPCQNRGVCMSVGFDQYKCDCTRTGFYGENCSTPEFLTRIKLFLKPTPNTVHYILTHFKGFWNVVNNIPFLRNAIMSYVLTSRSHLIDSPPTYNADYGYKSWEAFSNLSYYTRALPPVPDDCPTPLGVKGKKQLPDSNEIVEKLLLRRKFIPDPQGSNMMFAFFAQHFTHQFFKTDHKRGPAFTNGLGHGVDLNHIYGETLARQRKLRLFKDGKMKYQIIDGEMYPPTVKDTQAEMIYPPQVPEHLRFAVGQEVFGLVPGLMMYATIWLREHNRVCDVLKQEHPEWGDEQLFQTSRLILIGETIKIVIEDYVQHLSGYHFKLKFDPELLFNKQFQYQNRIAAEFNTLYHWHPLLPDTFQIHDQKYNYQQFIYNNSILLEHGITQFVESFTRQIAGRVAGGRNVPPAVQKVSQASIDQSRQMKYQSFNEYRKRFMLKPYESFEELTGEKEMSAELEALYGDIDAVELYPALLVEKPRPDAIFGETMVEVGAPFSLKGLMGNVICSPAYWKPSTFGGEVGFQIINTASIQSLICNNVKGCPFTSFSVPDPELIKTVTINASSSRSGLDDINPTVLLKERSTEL
Procedure: (§1) Human whole blood provides a protein and cell-rich milieu appropriate for the study of biochemical efficacy of anti-inflammatory compounds such as selective COX-2 inhibitors. […] This is consistent with the observation that COX-2 inhibitors have no effect on PGE2 production in normal blood. These inhibitors are active only after incubation of human whole blood with LPS, which induces COX-2. This assay can be used to evaluate the inhibitory effect of selective COX-2 inhibitors on PGE2 production. As well, platelets in whole blood contain a large amount of the COX-1 enzyme. Immediately following blood clotting, platelets are activated through a thrombin-mediated mechanism. This reaction results in the production of thromboxane B2 (TXB2) via activation of COX-1. Thus, the effect of test compounds on TxB2 levels following blood clotting can be examined and used as an index for COX-1 activity. Therefore, the degree of selectivity by the test compound can be determined by measuring the levels of PGE2 after LPS induction (COX-2) and TxB2 following blood clotting (COX-1) in the same assay.
A. COX-2 (LPS-induced PGE9 production)
Fresh blood is collected in heparinized tubes by venipuncture from both male and female volunteers. The subjects have no apparent inflammatory conditions and have not taken any NSAIDs for at least 7 days prior to blood collection. Plasma is immediately obtained from a 2 mL blood aliquot to use as blank (basal levels of PGE2). The remaining blood is incubated with LPS (100 μg/ml final concentration, Sigma Chem, #L-2630 from E. coli; diluted in 0.1% BSA (Phosphate buffered saline) for 5 minutes at room temperature. Five hundred μL aliquots of blood are incubated with either 2 μL of vehicle (DMSO) or 2 μL of a test compound at final concentrations varying from 10 nM to 30 μM for 24 hours at 37° C. At the end of the incubation, the blood is centrifuged at 12,000 x g for 5 minutes to obtain plasma. A 100 μL aliquot of plasma is mixed with 400 μL of methanol for protein precipitation. The supernatant is obtained and is assayed for PGE2 using a radioimmunoassay kit (Amersham, RPA#530) after conversion of PGE2 to its methyl oximate derivative according to the manufacturer's procedure.
Compounds of the present invention are inhibitors of COX-2 and are thereby useful in the treatment of COX-2 mediated diseases as enumerated above. The activities of the compounds against cyclooxygenase may be seen in the representative results shown below. In the assay, inhibition is determined by measuring the amount of prostaglandin E2 (PGE2) synthesized in the presence of arachidonic acid, COX-1 or COX-2 and a putative inhibitor. The IC50 values represent the concentration of putative inhibitor required to lower PGE2 synthesis to 50% of that obtained as compared to the uninhibited control.

COX-1 = COX-1 (Homo sapiens, UniProt P23219); assay: Human whole blood assay, COX-1 (clotting-induced TxB2 production); type: cell-based; parameters: platelets in whole blood contain a large amount of the COX-1 enzyme; from tissue; host or cells: fresh human whole blood without anticoagulant, platelets; conditions: clotting-induced TxB2, 1 hour at 37° C, read-out: HWB Cox-1 (IC50)
Procedure: as §1
B. COX-1 (Clotting-induced TxB2 production)
Fresh blood is collected into vacutainers containing no anticoagulants. […] The tubes are vortexed and incubated at 37° C. for 1 hour to allow blood to clot. At the end of incubation, serum is obtained by centrifugation (12,000 x g for 5 min.). A 100 μL aliquot of serum is mixed with 400 μL of methanol for protein precipitation. The supernatant is obtained and is assayed for TxB2 using a enzyme immunoassay kit (Cayman, #519031) according to the manufacturer's instruction. […]

COX-1, sequence (P23219 24-599): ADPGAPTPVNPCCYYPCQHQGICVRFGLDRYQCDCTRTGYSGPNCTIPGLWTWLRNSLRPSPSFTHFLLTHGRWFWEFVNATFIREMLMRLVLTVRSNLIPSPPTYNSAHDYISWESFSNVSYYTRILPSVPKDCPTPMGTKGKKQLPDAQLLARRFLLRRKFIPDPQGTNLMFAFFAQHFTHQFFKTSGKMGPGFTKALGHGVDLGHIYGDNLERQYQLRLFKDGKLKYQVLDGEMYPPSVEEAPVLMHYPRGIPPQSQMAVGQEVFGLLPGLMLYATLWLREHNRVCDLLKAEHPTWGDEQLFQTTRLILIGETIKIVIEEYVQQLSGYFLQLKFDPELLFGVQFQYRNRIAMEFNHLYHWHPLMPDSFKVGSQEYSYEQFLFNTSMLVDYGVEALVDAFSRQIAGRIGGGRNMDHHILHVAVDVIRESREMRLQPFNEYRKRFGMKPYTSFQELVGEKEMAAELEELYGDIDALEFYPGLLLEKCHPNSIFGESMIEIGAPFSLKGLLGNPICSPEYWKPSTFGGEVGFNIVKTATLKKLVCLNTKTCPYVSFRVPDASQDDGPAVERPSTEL

| Compound | pIC50 (COX-2) | pIC50 (COX-1) |
| --- | --- | --- |
| CCC1(CC)OC(=O)C(c2ccccc2)=C1c1ccc(S(C)(=O)=O)cc1 [t, 5,5-diethyl-4-[4-(methylsulfonyl)phenyl]-3-phenyl-2,5-dihydro-2-furanone, reference compound] | 4.91 |  |
| CC[C@@]1(C)OC(=O)C(c2ccc(F)c(F)c2)=C1c1ccc(S(C)(=O)=O)cc1 [h, (5R)-3-(3,4-difluorophenyl)-5-ethyl-5-methyl-4-[4-(methylsulfonyl)phenyl] -2,5-dihydro-2-furanone] | 5.81 | 4.12 |
| CCCC1(C)OC(=O)C(c2cccc(F)c2)=C1c1ccc(S(C)(=O)=O)cc1 (stereo not drawn) [o, 3-(3-fluorophenyl)-5-methyl-4-[4-(methylsulfonyl)phenyl]-5-propyl-2,5-dihydro-2-furanone] | 5.45 |  |
| CCCC1(C)OC(=O)C(c2ccc(F)cc2)=C1c1ccc(S(C)(=O)=O)cc1 (stereo not drawn) [n, 3-(4-fluorophenyl)-5-methyl-4-[4-(methylsulfonyl)phenyl]-5-propyl-2,5-dihydro-2-furanone] | 5.60 | < 4.05 |
| CC1(C)OC(=O)C(c2ccc(F)cc2)=C1c1ccc(S(C)(=O)=O)cc1 [Compound T3-1, 3-(4-fluorophenyl)-5,5-dimethyl-4-[4-(methylsulfonyl)phenyl]-2,5-dihydro-2-furanone, reference compound] | > 6.43 | 4.06 |
| CC[C@]1(C)OC(=O)C(c2ccc(F)c(F)c2)=C1c1ccc(S(C)(=O)=O)cc1 [i, (5S)-3-(3,4-difluorophenyl)-5-ethyl-5-methyl-4-[4-(methylsulfonyl)phenyl] -2,5-dihydro-2-furanone] | 6.28 | 4.33 |
| CCCC1(C)OC(=O)C(c2ccc(F)c(F)c2)=C1c1ccc(S(C)(=O)=O)cc1 (stereo not drawn) [p, 3-(3,4-difluorophenyl)-5-methyl-4-[4-(methylsulfonyl)phenyl]-5-propyl-2,5-dihydro-2-furanone] | 5.61 |  |

The next lines start with the values.

| pIC50 (COX-2) | pIC50 (COX-1) | Compound |
| --- | --- | --- |
| 6.51 | 5.08 | CC[C@]1(C)OC(=O)C(c2ccc(F)cc2)=C1c1ccc(S(C)(=O)=O)cc1 [d, (5S)-5-ethyl-3-(4-fluorophenyl)-5-methyl-4-[4-(methylsulfonyl)phenyl]-2,5-dihydro-2-furanone] |
| 6.89 | 4.34 | CC[C@@]1(C)OC(=O)C(c2ccc(F)cc2)=C1c1ccc(S(C)(=O)=O)cc1 [e, (5R)-5-ethyl-3-(4-fluorophenyl)-5-methyl-4-[4-(methylsulfonyl)phenyl]-2,5-dihydro-2-furanone] |
| 6.23 | < 4.52 | CCC1(C)OC(=O)C(c2ccc(F)cc2)=C1c1ccc(S(C)(=O)=O)cc1 (stereo not drawn) [c, 5-ethyl-3-(4-fluorophenyl)-5-methyl-4-[4-(methylsulfonyl)phenyl]-2,5-dihydro-2-furanone] |
| 4.86 |  | CCC1(CC)OC(=O)C(c2ccc(F)cc2)=C1c1ccc(S(C)(=O)=O)cc1 [u, 5,5-diethyl-3-(4-fluorophenyl)-4-[4-(methylsulfonyl)phenyl]-2,5-dihydro-2-furanone, reference compound] |
